Assay results taken from US20180353472A1, “UNIT DOSE FORMULATIONS FOR USE AS AN ANTI-FUGETACTIC AGENT” (THE GENERAL HOSPITAL CORPORATION d.b.a MASSACHUSETTS …, priority 2015, published 2018).

Experiments:
[1] = test system: breast cancer tumor which over-expresses CXCL12; conditions: human patient, dose between 0.000001% and 65% of the dose appropriate for recruiting stem cells, once a day for five days, optionally followed by a chemotherapeutic drug
Protocol: A human patient with a breast cancer tumor which over-expresses CXCL12 is administered AMD3100 at a dose between 0.000001% and 65% of the dose appropriate for recruiting stem cells once a day for five days, optionally followed by a chemotherapeutic drug.

[2] = test system: tumor that expresses high levels of CXCL12; conditions: mice, subcutaneous, dose between 0.000001% and 65% of the dose appropriate for recruiting stem cells, once a day for 5 days; assessed one to three days after final dose
Protocol: Mice are injected with tumor cells (subcutaneous injection) from a tumor that expresses high levels of CXCL12 and a tumor is allowed to develop.
One to three days after the final AMD3100 dose, mice are assessed for tumor growth and the reduction or knock down of fugetaxis.

For c1cc(CN2CCCNCCNCCCNCC2)ccc1CN1CCCNCCNCCCNCC1 [AMD3100, 1, 1′-[1,4-phenylenebis (methylene)]-bis-1,4,8,11-tetraazacyclotetradecane], the “T cell recruitment into the tumor” value [1] was “increased T cell recruitment into the tumor”, the patient survival [1] was “increase in patient survival” and the tumor volume [1] was “decrease in tumor volume”. For the same compound, the “anti-fugetactic effect (reduction or knock down of fugetaxis)” value [2] was “will have an anti-fugetactic effect”.
